Values of other authors, collected in patent publication US12649758B2, “Industrial method for simultaneously preparing Stevia rebaudiana chlorogenic acid and stevioside” (Chenguang Biotech Group Co., Ltd., priority 2018, dated 2026).

SMILES: C=C1C[C@@]23CC[C@H]4[C@@](C)(CCC[C@@]4(C)C(=O)O[C@@H]4O[C@H](CO)[C@@H](O)[C@H](O)[C@H]4O)[C@@H]2CC[C@]1(O[C@@H]1O[C@H](CO)[C@@H](O)[C@H](O)[C@H]1O[C@@H]1O[C@H](CO)[C@@H](O)[C@H](O)[C@H]1O)C3 [Stevioside, stevioside]
- sweetness relative to sucrose: 300 to 500 times of sucrose
